Measured values reported in ChEMBL document CHEMBL1201862, “PubChem BioAssay data set” (2004).
Activity calls are given as the source filed them.

How the values were obtained:
[1] = target: Eukaryotic translation initiation factor 4E (Mus musculus, UniProt P63073); assay: eIF4E–eIF4G protein interaction inhibitors, dose response, biochemical, TR-FRET (AID 855); assay type: functional;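 also: potency for disrupting eIF4E binding to eIF4GI seen as loss of FRET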
[2] = target: T1, Long-chain-fatty-acid--AMP ligase FadD28 (Mycobacterium tuberculosis, UniProt P9WQ59); assay: Fluorescence polarization aasay to screen for inhibitors that compete for the binding of FadD28 to a bisubstrate Measured in Biochemical System Using Plate Reader - 2147-01_Inhibitor_Dose_CherryPick_Activity.; assay type: functional, Mycobacterium tuberculosis H37Rv
T1 sequence (P9WQ59 whole entry): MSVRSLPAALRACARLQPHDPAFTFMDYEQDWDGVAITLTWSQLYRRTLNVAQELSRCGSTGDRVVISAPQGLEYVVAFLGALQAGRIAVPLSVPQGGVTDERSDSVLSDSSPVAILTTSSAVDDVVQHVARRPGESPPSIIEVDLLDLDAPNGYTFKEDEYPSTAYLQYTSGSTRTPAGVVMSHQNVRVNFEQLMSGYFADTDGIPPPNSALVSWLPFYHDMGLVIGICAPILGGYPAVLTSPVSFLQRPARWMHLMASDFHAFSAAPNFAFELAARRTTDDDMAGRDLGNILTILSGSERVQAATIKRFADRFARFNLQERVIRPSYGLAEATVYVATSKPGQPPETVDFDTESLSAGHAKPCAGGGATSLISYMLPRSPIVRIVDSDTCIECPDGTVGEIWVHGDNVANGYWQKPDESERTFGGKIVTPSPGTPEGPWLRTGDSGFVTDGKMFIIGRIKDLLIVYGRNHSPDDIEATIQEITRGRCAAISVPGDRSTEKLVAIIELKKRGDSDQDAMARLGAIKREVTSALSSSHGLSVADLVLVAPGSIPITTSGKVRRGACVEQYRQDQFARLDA

[3] = target: T2, Heat shock factor protein 1 (Mus musculus, UniProt P38532); assay: inhibition of MG132-induced HSE-luciferase signal, confirmation, cell-based, NIH3T3, luminescence, dose retest (AID 2382); assay type: functional;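 also: NIH3T3 fibroblasts with HSF1-driven luciferase reporter stressed by proteasome inhibitor MG132; luminescence from HSF1-driven luciferase expression after 8 hours of MG132 stress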
T2 sequence (P38532 whole entry): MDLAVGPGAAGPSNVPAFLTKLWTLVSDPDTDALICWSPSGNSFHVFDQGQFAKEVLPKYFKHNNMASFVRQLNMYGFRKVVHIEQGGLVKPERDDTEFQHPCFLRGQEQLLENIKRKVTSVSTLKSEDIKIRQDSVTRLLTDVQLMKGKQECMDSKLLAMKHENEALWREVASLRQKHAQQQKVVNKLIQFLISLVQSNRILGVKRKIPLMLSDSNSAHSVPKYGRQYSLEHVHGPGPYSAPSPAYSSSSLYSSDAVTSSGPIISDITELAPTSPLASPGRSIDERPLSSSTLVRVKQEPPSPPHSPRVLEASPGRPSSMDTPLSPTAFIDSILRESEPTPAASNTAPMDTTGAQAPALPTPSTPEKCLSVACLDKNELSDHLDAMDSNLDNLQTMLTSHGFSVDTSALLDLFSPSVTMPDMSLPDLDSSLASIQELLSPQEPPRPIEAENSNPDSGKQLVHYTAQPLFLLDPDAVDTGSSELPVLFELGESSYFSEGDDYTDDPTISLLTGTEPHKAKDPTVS

[4] = Luminescence Cell-Based Dose Confirmation HTS to Identify Activators of 5'UTR Stem-Loop Driven Alpha-Synuclein mRNA Translation in H4 Neuroglioblastoma Cells. [Related pubchem assays: 1829 (Project Summary), 1814 (Primary HTS)]; assay type: functional
[5] = system: H4; assay: Luminescence Cell-Based Dose Response HTS to Identify Activators of 5'UTR Stem-Loop Driven Prion Protein mRNA Translation in H4 Neuroglioblastoma Cells. [Related pubchem assays: 1829 (Project Summary), 1814 (Primary HTS)]; assay type: functional; settings: Homo sapiens
[6] = microbe, parasite or virus in culture; assay type: functional; settings: Mycobacterium tuberculosis
[7] = Fluorescence-based cell-based high throughput dose response assay for inhibitors of the interaction of nucleotide-binding oligomerization domain containing 2 (NOD2) and the receptor-interacting serine-threonine kinase 2 (RIPK2).; assay type: functional, Homo sapiens; settings: Homo sapiens
[8] = Luminescence Cell-Based Dose Response HTS to Identify Activators of Luciferase Translation or Activity in H4 […] Cells. [Related pubchem assays: 1829 (Project Summary), 1814 (Primary HTS)]; assay type: functional
[9] = target: Paired box protein Pax-8 (Homo sapiens, UniProt Q06710); assay: inhibitors of PAX8-driven TPO luciferase reporter, dose response, RMG-I cells, cherry-pick (AID 687027); assay type: functional, cell-based;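 also: luciferase reporter driven by Pax8 target thyroperoxidase promoter measured by SteadyGlo luminescence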
Sequence of Paired box protein Pax-8 (Q06710 whole entry): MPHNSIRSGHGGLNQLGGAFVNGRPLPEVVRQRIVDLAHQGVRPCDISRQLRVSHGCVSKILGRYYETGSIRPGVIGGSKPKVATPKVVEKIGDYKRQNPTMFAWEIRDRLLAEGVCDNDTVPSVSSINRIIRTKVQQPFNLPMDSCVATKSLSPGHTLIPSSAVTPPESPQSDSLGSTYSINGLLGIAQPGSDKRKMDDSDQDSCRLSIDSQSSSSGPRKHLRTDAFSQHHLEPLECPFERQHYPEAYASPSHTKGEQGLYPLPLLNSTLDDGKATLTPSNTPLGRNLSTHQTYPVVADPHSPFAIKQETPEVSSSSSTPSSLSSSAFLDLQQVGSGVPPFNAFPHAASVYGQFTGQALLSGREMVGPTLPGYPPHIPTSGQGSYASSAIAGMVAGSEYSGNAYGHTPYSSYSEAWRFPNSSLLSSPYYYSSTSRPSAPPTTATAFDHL

[10] = target: T3, Sentrin-specific protease 8 (Homo sapiens, UniProt Q96LD8); assay type: functional
T3 sequence (Q96LD8 whole entry): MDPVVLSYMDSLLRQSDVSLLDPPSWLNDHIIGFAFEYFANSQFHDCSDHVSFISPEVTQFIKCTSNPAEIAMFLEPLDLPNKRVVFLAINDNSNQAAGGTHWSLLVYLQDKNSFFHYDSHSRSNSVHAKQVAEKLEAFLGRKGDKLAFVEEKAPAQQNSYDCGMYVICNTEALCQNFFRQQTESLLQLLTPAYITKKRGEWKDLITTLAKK

[11] = target: Large T antigen (Simian virus 40, UniProt P03070); assay type: functional, Betapolyomavirus macacae;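 also: Confirmatory-stage PubChem screen for compounds that inhibit SV40 T antigen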
Sequence of Large T antigen (P03070 whole entry): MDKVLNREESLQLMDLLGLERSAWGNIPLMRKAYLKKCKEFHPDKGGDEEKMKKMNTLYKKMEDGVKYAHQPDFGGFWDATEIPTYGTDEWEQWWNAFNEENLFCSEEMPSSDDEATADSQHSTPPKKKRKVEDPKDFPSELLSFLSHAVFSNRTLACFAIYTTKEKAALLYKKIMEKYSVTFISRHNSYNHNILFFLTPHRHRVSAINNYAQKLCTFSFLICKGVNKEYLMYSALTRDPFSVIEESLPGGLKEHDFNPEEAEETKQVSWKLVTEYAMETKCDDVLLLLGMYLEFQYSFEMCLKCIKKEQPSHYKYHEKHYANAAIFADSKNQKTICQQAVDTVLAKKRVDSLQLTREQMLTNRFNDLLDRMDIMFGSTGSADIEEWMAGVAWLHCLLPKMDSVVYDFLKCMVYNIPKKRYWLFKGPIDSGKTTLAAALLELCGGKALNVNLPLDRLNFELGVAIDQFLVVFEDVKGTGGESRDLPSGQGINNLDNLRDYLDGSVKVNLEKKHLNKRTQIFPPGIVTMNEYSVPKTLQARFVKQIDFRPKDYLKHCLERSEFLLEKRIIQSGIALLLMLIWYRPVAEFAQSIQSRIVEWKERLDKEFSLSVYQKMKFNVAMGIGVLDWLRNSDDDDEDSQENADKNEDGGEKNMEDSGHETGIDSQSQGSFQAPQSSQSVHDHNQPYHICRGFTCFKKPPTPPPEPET

[12] = target: T3, Sentrin-specific protease 8; assay type: functional; remark: listed apart in the source
[13] = CRF-BP/CRF-R2 complex antagonists, dose response, cell-based, uHTS hits, 384-well (AID 651639); assay type: functional, Homo sapiens; settings: read-out: IC50_Mean
[14] = target: T4, Corticotropin-releasing factor receptor 2/Corticotropin-releasing factor-binding protein (Homo sapiens, UniProt P24387+Q13324); assay: activators of CRF receptor 2 with binding protein – uHTS hits, confirmation (AID 602473); assay type: functional; settings: read-out: EC50_Mean
T4 sequence (Q13324 whole entry): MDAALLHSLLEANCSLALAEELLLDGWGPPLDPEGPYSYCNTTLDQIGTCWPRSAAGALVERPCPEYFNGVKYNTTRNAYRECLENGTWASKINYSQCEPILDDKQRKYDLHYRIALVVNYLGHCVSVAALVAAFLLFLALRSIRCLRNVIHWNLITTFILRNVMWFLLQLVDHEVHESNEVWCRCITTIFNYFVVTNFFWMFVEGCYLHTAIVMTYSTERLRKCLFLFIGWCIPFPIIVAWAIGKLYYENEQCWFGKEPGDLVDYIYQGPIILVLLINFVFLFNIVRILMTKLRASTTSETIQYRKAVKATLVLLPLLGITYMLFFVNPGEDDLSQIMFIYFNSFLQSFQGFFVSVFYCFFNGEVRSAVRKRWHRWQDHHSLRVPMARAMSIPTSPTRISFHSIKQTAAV
T4 sequence (P24387 whole entry): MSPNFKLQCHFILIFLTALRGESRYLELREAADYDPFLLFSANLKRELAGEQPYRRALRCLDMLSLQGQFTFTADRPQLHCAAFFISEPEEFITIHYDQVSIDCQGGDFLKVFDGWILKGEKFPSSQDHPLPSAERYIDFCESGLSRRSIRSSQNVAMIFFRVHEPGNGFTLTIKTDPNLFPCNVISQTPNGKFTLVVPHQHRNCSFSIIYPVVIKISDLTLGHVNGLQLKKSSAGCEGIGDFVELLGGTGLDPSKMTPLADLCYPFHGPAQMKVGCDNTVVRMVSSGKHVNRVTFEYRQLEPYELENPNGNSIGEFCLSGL

[15] = target: T4, Corticotropin-releasing factor receptor 2/Corticotropin-releasing factor-binding protein; assay: Dose Response confirmation of uHTS hits for small molecule antagonists of the CRF-binding protein and CRF-R2 receptor complex.; assay type: functional; settings: read-out: IC50_Mean
[16] = A cytotoxicity screen of small molecule inhibitors of the PhoP region in Salmonella typhi identified in the primary screen. [Related pubchem assays: 1850, 1864, 1985 ]; assay type: functional
[17] = target: T5, Fructose-bisphosphate aldolase (Mycobacterium tuberculosis, UniProt P9WQA3); assay: Fluorescence-based biochemical high throughput dose response assay for inhibitors of the fructose-bisphosphate aldolase (FBA) of M. tuberculosis.; assay type: functional
T5 sequence (P9WQA3 whole entry): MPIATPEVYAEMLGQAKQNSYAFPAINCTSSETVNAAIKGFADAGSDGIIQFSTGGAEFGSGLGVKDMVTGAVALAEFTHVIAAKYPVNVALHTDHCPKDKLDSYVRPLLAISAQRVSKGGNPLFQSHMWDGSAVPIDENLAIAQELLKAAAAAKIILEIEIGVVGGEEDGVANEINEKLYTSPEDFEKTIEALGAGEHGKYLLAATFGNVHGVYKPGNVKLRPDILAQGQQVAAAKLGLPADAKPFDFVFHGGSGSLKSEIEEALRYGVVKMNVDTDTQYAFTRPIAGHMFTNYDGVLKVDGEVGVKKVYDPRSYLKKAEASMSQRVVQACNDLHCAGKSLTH

[18] = target: T6, Methionyl-tRNA synthetase, putative (Trypanosoma brucei brucei, UniProt Q38C91); assay type: functional, Trypanosoma brucei brucei strain 927/4 GUTat10.1
T6 sequence (Q38C91 whole entry): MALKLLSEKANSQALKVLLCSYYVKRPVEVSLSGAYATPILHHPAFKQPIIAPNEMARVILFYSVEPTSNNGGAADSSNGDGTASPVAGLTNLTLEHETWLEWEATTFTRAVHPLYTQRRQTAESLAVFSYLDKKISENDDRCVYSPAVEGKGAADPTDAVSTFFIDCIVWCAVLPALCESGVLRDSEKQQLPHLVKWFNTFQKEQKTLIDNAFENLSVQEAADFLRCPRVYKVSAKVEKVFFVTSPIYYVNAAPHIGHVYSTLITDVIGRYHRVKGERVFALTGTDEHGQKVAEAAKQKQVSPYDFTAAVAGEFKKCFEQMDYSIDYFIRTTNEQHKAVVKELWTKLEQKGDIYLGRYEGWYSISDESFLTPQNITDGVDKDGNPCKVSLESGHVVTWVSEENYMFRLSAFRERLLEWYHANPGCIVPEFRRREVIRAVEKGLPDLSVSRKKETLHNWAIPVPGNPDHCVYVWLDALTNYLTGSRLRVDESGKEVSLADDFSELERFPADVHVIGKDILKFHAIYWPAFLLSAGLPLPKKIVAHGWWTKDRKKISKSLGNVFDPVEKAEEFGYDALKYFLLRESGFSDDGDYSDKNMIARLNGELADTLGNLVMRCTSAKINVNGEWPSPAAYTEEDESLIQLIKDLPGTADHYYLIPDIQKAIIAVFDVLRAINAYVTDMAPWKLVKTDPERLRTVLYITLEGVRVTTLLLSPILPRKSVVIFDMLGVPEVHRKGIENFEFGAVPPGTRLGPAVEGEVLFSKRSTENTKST

[19] = target: T6, Methionyl-tRNA synthetase, putative; assay type: functional, Trypanosoma brucei brucei strain 927/4 GUTat10.1; remark: listed apart in the source
[20] = Counterscreen for inhibitors of Trypanosoma brucei methionyl tRNA synthetase (MetRS): Luminescence-based cell-based high throughput dose response assay to identify compounds that are cytotoxic to Jurkat human T lymphocyte cells.; assay type: functional

Sequence of Eukaryotic translation initiation factor 4E (P63073 whole entry): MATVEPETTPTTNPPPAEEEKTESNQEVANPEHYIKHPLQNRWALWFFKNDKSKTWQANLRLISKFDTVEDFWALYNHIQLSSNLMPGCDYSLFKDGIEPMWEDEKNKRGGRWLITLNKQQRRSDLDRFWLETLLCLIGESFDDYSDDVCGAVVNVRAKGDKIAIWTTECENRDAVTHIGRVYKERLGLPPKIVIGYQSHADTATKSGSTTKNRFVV

COc1cccc(NC(=O)Nc2ccc(C(C)(C)C)cc2)c1
IC50 [1]: 50 µM (inactive) | AC50 [2]: > 100 µM (inactive)

COc1nn(-c2ccccc2)c(=O)c(Cl)c1Cl
EC50 [3]: 9.89 µM (active) | EC50 [4]: > 120 µM (not active) | EC50 [5]: > 120 µM (not active) | CC50 [6]: 8.79 µM (active) | IC50 [7]: 4.58 µM (active) | EC50 [8]: > 120 µM (not active) | AC50 [9]: 6.72 µM (active)

CCOc1ccc(N2Nc3[nH]nc(N)c3N2)cc1
IC50 [10]: 52.3 µM (active) | IC50 [11]: 18 µM (active) | IC50 [12]: 40.6 µM (active)

COc1ccc(Cl)cc1NC(=O)C(C)NC(c1ccccc1)c1ccccc1 (stereo not drawn)
IC50 [13]: > 20 µM (inactive) | EC50 [14]: > 53 µM (inactive) | IC50 [15]: 1.14 µM (active)

Cc1cc(-c2nc3ccccc3o2)c2ccccc2n1
EC50 [16]: > 50 µM (active) | IC50 [17]: 2.96 µM (active)

C[C@@H]1C=C(C(=O)NCc2nc3ccccc3[nH]2)O[C@H](OCc2ccc(CO)cc2)C1
IC50 [18]: 2.04 µM (active) | IC50 [19]: 1.47 µM (active) | IC50 [20]: 83.3 µM (inactive)

O=C(Nc1cc(-c2ccccc2)sc1C(=O)O)c1cccc(F)c1
IC50 [13]: 14.2 µM (active) | EC50 [14]: > 53 µM (inactive) | IC50 [15]: 23.5 µM (active)
